Measured values published in patent publication US20220315572A1, “SUBSTITUTED CYANOPYRROLIDINES WITH ACTIVITY AS USP30 INHIBITORS” (MISSION THERAPEUTICS LIMITED, priority 2019, published 2022).

How the values were obtained:
FaSSIF solubility = format: physicochemical; conditions: simulated intestinal fluid, fasted state
From the text: FaSSIF: simulated intestinal fluid in fasted state measured at pH 6.5.

Hepatocyte Cl human = format: in vitro ADME; conditions: human hepatocytes
Procedure: Hep Cl human: in vitro hepatocyte clearance in human cells.
Clu: in vitro clearance. Clu as defined here is the scaled clearance, in turn calculated from the intrinsic clearance. The intrinsic clearance is the predicted clearance due to hepatic metabolic reactions, determined from incubation of a compound in a hepatocyte preparation.

[1] = Brain homogenate free fraction, equilibrium dialysis; format: in vitro ADME; conditions: mouse brain tissue homogenate; read-out: Binding Mouse Brain fu, br
From the text: Brain fu,br: The free fraction of a compound in brain tissue homogenate preparation determined by in vitro equilibrium dialysis. It is understood that only unbound (free) compound is capable of engaging with the target.

PK mouse = format: in vivo
From the text: Cl in vivo clearance: Pharmacokinetic measurement of the volume of plasma (or any matrix) from which a substance is completely removed per unit time.
Oral F: Oral Bioavailability.
Kpu,u is the ratio of unbound drug in brain to unbound drug in plasma and may be indicative of potential for treating peripheral and/or CNS indications.

USP30 = target: T1, USP30 (Mus musculus, UniProt Q3UN04); assay: USP30 kidney tissue target engagement assay (TE ex vivo); format: in vivo; conditions: Mouse kidney 10 mg/kg PO
T1 construct: brain or kidney tissue samples from compound-dosed animals; from tissue; host or cells: kidney
T1 sequence (Q3UN04 1-517): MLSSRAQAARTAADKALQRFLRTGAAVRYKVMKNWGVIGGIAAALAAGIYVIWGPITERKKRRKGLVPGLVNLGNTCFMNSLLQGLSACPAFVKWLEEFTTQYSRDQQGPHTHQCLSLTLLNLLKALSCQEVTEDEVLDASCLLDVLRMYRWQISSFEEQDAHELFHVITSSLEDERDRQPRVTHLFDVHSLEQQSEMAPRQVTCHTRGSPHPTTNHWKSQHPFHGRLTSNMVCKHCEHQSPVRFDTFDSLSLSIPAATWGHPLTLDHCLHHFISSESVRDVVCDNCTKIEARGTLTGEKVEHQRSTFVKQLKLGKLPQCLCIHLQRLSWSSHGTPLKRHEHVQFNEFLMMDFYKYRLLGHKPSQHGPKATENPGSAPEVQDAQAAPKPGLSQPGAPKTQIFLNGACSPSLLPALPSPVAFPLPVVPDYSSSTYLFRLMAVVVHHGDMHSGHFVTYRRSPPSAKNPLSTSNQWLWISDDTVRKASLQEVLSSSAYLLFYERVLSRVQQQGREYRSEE
Procedure: 50 to 100 mg of tissue was homogenised in 3× volume of lysis buffer (50 mM Tris, pH 7.5, 50 mM NaCl, 0.1% NP-40/Igepal CA-630, 0.5% CHAPS, 2 mM MgCl2, 5 mM beta-mercaptoethanol, cOmplete mini tablets EDTA free (Roche), PhosStop tablets (Roche)) using a Retch Mixer Mill (MM400). Lysate containing 60 μg protein was incubated with a final conc of 6 μM of HA-Ahx-Ahx-Ub-VME probe for 15 mins at room temperature. The reaction was stopped by addition of 5×SDS sample loading buffer and proteins separated by SDS-PAGE and western blotting. USP30 was detected using an anti-USP30 Sheep S746D antibody (MRC PPU Reagents and Services) and a rabbit anti sheep secondary IgG (H+L) horseradish peroxidase conjugated (Thermo #31480) and visualised using ECL reagent (GE #RPN2109) on a GE LAS4000 imager. Target engagement was measured by quantitation of the bands corresponding to USP30 and USP30 bound to the Ub-VME probe and expression of this proportion compared to vehicle treated control.
TE ex vivo: USP30 kidney tissue target engagement assay.

With `C[C@@H]1C[C@@H](NC(=O)c2nnc(-c3cccc(C#N)c3)o2)CN1C#N` [Example 1, N-((3R,5R)-1-Cyano-5-methylpyrrolidin-3-yl)-5-(3-cyanophenyl)-1,3,4-oxadiazole-2-carboxamide] the “FaSSIF (μM) measured at pH 6.5” value (FaSSIF solubility) was 415 μM, the “Hepatocyte Cl human scaled Clu” value (Hepatocyte Cl human) was 6 mL/min/kg and the fraction unbound [1] was 0.26. The “Unbound plasma Cmax/TOM20-Ub cell potency” value (PK mouse; 10 mg/kg PO dose - mouse) was 82-fold, the clearance (PK mouse; blood, mouse 2 mg/kg iv, read-out: Cl blood) was 23 mL/min/kg and the Kp (PK mouse; brain and plasma (unbound), 2 mg/kg IV dose - mouse, unbound brain to unbound plasma, read-out: Kpu, u) was 0.01. For the same compound, the bioavailability (PK mouse; in vivo, po, mouse 10 mg/kg, read-out: Oral F (%)) was 48%, the “TE ex vivo TE % occupancy” value (USP30; 1 h post-dose) was 94% and the “TE ex vivo TE % occupancy” value (USP30; 4 h post-dose) was 89%. The “TE ex vivo TE % occupancy” value (USP30; 8 h post-dose) was 79%, the “TE ex vivo TE % occupancy” value (USP30; 12 h post-dose) was 8% and the melting point was 152 to 154 °C.
